Results taken from patent publication US6962923B2, “Pyrazole compositions” (Pfizer Inc., priority 1999, dated 2005).
Blank lines part the entries; values can stand above or below the compound they belong to.

Assays:
[1] = in man; cited from earlier work
[2] = hypertensive patients; cited from earlier work
neointimal formation = conditions: cited from earlier work

Compound: CCCC[C@@H](NC(=O)[C@@H](Cc1cn(C(=O)OC)c2ccccc12)NC(=O)[C@H](CC(C)(C)C)NC(=O)N1[C@H](C)CCC[C@@H]1C)C(=O)O [BQ-788]
- peripheral resistance [1]: increase peripheral resistance

Compound: COc1ccccc1Oc1c(NS(=O)(=O)c2ccc(C(C)(C)C)cc2)nc(-c2ncccn2)nc1OCCO [Bosentan]
- blood pressure [2]: decreased blood pressure

- melting point: 187.6 °C
Compound: COc1ccccc1Oc1c(OC)nn(C)c1NS(=O)(=O)c1ccc(C(C)(C)C)cc1 [Example 107, 4-(tert-Butyl)-N-[3-methoxy-4-(2-methoxyphenoxy)-1-methyl-1H-pyrazol-5-yl]benzenesulfonamide]

Compound: CCCOc1ccc2c(c1)[C@@H](c1ccc(OC)cc1OCC(=O)O)[C@H](C(=O)O)[C@H]2c1ccc2c(c1)OCO2 [SB-209670]
- reduction in neointimal formation relative to control animals (neointimal formation): 50%
